In PubChem BioAssay (NCI):
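At the GI50, growth is halved. TGI: concentration producing complete growth inhibition.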

Columns and labels:
Test in all cases: NCI-60 cell line screen, 384-well format; in the data active = GI50 below about 0.43 µM; inactive = the rest
[1] = test system: A549 NSCLC
[2] = test system: KM12 colon
[3] = test system: UO-31 renal
[4] = test system: CCRF-CEM leukemia
[5] = test system: RPMI-8226 leukemia
[6] = test system: SF-295 CNS
[7] = test system: HS 578T breast
[8] = test system: NCI-H460 NSCLC
[9] = test system: SK-MEL-5 melanoma
[10] = test system: HOP-62 NSCLC
[11] = test system: HCC-2998 colon
[12] = test system: IGROV1 ovarian
[13] = test system: NCI-H522 lung
[14] = test system: SF-268 CNS
[15] = test system: MALME-3M melanoma
[16] = test system: MCF7 breast
[17] = test system: OVCAR-3 ovarian
[18] = test system: NCI-H322M lung
[19] = test system: TK-10 renal
[20] = test system: UACC-62 melanoma
[21] = test system: M14 melanoma
[22] = test system: NCI-H23 lung
[23] = test system: T-47D breast
[24] = test system: OVCAR-4 ovarian
[25] = test system: RXF 393 renal
[26] = test system: SF-539 CNS
[27] = test system: HL-60(TB) leukemia
[28] = test system: PC-3 prostate
[29] = test system: MDA-MB-468 breast
[30] = test system: DU-145 prostate
[31] = test system: SK-OV-3 ovarian
[32] = test system: LOX IMVI melanoma
[33] = test system: NCI/ADR-RES ovarian
[34] = test system: NCI-H226 lung
[35] = test system: K-562 leukemia
[36] = test system: HCT-116 colon
[37] = test system: HOP-92 NSCLC
[38] = test system: SNB-19 CNS
[39] = test system: SK-MEL-28 melanoma
[40] = test system: HT29 colon
[41] = test system: CAKI-1 renal
[42] = test system: MOLT-4 leukemia
[43] = test system: OVCAR-8 ovarian
[44] = test system: EKVX NSCLC
[45] = test system: UACC-257 melanoma
[46] = test system: A498 renal
[47] = test system: U251 glioblastoma
[48] = test system: SNB-75 CNS
[49] = test system: COLO 205 colon
[50] = test system: 786-0 renal
[51] = test system: HCT-15 colon
[52] = test system: SR leukemia
[53] = test system: BT-549 breast
[54] = test system: SW-620 colon
[55] = test system: MDA-MB-231 breast
[56] = test system: ACHN renal
[57] = test system: MDA-MB-435 melanoma
[58] = test system: SN12C renal

Cc1ccccc1C(C(=O)NC1CCCCC1)N(C(=O)Cn1ccnc1C)c1cccc(F)c1 (stereo unspecified)
86.6 µM: TGI [52]
83 µM: TGI [7]
> 100 µM: TGI [1] | TGI [2] | TGI [3] | TGI [4] | TGI [5] | TGI [6] | TGI [8] | TGI [9] | TGI [10] | TGI [11] | TGI [12] | TGI [13] | TGI [14] | TGI [15] | TGI [16] | TGI [17] | TGI [18] | TGI [19] | TGI [20] | TGI [21] | TGI [22] | TGI [23] | TGI [24] | TGI [26] | TGI [27] | TGI [28] | TGI [29] | TGI [30] | TGI [31] | TGI [32] | TGI [33] | TGI [34] | TGI [35] | TGI [36] | TGI [37] | TGI [38] | TGI [39] | TGI [40] | TGI [41] | TGI [42] | TGI [43] | TGI [44] | TGI [45] | TGI [46] | TGI [47] | TGI [48] | TGI [49] | TGI [50] | TGI [51] | TGI [53] | TGI [54] | TGI [55] | TGI [56] | TGI [57] | TGI [58]
96.6 µM: TGI [25]
inactive: GI50 [1] > 100 µM | GI50 [2] > 100 µM | GI50 [3] > 100 µM | GI50 [4] > 100 µM | GI50 [5] > 100 µM | GI50 [6] 30 µM | GI50 [7] 27.4 µM | GI50 [8] > 100 µM | GI50 [9] > 100 µM | GI50 [10] > 100 µM | GI50 [11] > 100 µM | GI50 [12] > 100 µM | GI50 [13] > 100 µM | GI50 [14] > 100 µM | GI50 [15] > 100 µM | GI50 [16] > 100 µM | GI50 [17] > 100 µM | GI50 [18] > 100 µM | GI50 [19] 49.2 µM | GI50 [20] > 100 µM | GI50 [21] > 100 µM | GI50 [22] > 100 µM | GI50 [23] 24.5 µM | GI50 [24] > 100 µM | GI50 [25] 20.5 µM | GI50 [26] 36.2 µM | GI50 [27] > 100 µM | GI50 [28] > 100 µM | GI50 [29] > 100 µM | GI50 [30] > 100 µM | GI50 [31] > 100 µM | GI50 [32] 52.7 µM | GI50 [33] > 100 µM | GI50 [34] > 100 µM | GI50 [35] > 100 µM | GI50 [36] > 100 µM | GI50 [37] 77.4 µM | GI50 [38] > 100 µM | GI50 [39] > 100 µM | GI50 [40] > 100 µM | GI50 [41] > 100 µM | GI50 [42] > 100 µM | GI50 [43] 75.6 µM | GI50 [44] > 100 µM | GI50 [45] > 100 µM | GI50 [46] 66.6 µM | GI50 [47] > 100 µM | GI50 [48] 26.8 µM | GI50 [49] > 100 µM | GI50 [50] > 100 µM | GI50 [51] > 100 µM | GI50 [52] 20 µM | GI50 [53] > 100 µM | GI50 [54] > 100 µM | GI50 [55] 51.1 µM | GI50 [56] > 100 µM | GI50 [57] > 100 µM | GI50 [58] > 100 µM
